Results published in ChEMBL document CHEMBL5338704, “Discovery of novel phenylhydrazone-based oxindole-thiolazoles as potent antibacterial agents toward Pseudomonas aeruginosa” (Eur J Med Chem, 2022).
Values after ≈ are worked out from the molar mass of the structure shown.

How the values were obtained:
[1] = test system: Staphylococcus aureus; test: Antibacterial activity against methicillin resistant Staphylococcus aureus assessed as inhibition of bacterial growth by micro-broth dilution assay; assay type: functional
[2] = test system: Staphylococcus aureus; test: Antibacterial activity against Staphylococcus aureus assessed as inhibition of bacterial growth by micro-broth dilution assay; assay type: functional
[3] = test system: Staphylococcus aureus; test: Antibacterial activity against Staphylococcus aureus ATCC 25923 assessed as inhibition of bacterial growth by micro-broth dilution assay; assay type: functional
[4] = test system: Staphylococcus aureus; test: Antibacterial activity against Staphylococcus aureus ATCC 29213 assessed as inhibition of bacterial growth by micro-broth dilution assay; assay type: functional
[5] = test system: Enterococcus faecalis; test: Antibacterial activity against Enterococcus faecalis assessed as inhibition of bacterial growth by micro-broth dilution assay; assay type: functional
[6] = test system: Klebsiella pneumoniae; test: Antibacterial activity against Klebsiella pneumoniae assessed as inhibition of bacterial growth by micro-broth dilution assay; assay type: functional
[7] = test system: Escherichia coli; test: Antibacterial activity against Escherichia coli assessed as inhibition of bacterial growth by micro-broth dilution assay; assay type: functional
[8] = test system: Escherichia coli; test: Antibacterial activity against Escherichia coli ATCC 25922 assessed as inhibition of bacterial growth by micro-broth dilution assay; assay type: functional
[9] = test system: Pseudomonas aeruginosa; test: Antibacterial activity against Pseudomonas aeruginosa assessed as inhibition of bacterial growth by micro-broth dilution assay; assay type: functional
[10] = test system: Pseudomonas aeruginosa; test: Antibacterial activity against Pseudomonas aeruginosa ATCC 27853 assessed as inhibition of bacterial growth by micro-broth dilution assay; assay type: functional
[11] = test system: Acinetobacter baumannii; test: Antibacterial activity against Acinetobacter baumannii assessed as inhibition of bacterial growth by micro-broth dilution assay; assay type: functional
[12] = Hemolytic activity in RBC (unknown origin) assessed as hemolysis; assay type: toxicity, cell-based, Erythrocyte; conditions: red blood cells (erythrocytes)
[13] = test system: Acinetobacter baumannii; test: Potency index, ratio of norfloxacin MIC to test compound MIC for antibacterial activity against Acinetobacter baumannii assessed as inhibition of bacterial growth by micro-broth dilution assay; assay type: functional

SMILES: Cn1ccnc1SCC(O)CN1C(=O)/C(=N\Nc2ccc([N+](=O)[O-])cc2)c2ccccc21 (stereo not given)
- MIC [1]: 64 µg/mL (≈ 141 µM)
- MIC [2]: 128 µg/mL (≈ 283 µM)
- MIC [3]: 64 µg/mL (≈ 141 µM)
- MIC [4]: 128 µg/mL (≈ 283 µM)
- MIC [5]: 128 µg/mL (≈ 283 µM)
- MIC [6]: 32 µg/mL (≈ 70.7 µM)
- MIC [7]: 32 µg/mL (≈ 70.7 µM)
- MIC [8]: 128 µg/mL (≈ 283 µM)
- MIC [9]: 256 µg/mL (≈ 566 µM)
- MIC [10]: 16 µg/mL (≈ 35.4 µM)
- MIC [11]: 64 µg/mL (≈ 141 µM)
- HC50 [12]: > 512 µg/mL

SMILES: Cn1nnnc1SCC(O)CN1C(=O)/C(=N\Nc2ccc([N+](=O)[O-])cc2)c2ccccc21 (stereo not given)
- MIC [1]: 8 µg/mL (≈ 17.6 µM)
- MIC [2]: 64 µg/mL (≈ 141 µM)
- MIC [3]: 4 µg/mL (≈ 8.8 µM)
- MIC [4]: 16 µg/mL (≈ 35.2 µM)
- MIC [5]: 8 µg/mL (≈ 17.6 µM)
- MIC [6]: 16 µg/mL (≈ 35.2 µM)
- MIC [7]: 64 µg/mL (≈ 141 µM)
- MIC [8]: 16 µg/mL (≈ 35.2 µM)
- MIC [9]: 2 µg/mL (≈ 4.4 µM)
- MIC [10]: 4 µg/mL (≈ 8.8 µM)
- MIC [11]: 64 µg/mL (≈ 141 µM)
- HC50 [12]: 262 µg/mL

SMILES: Cn1nnnc1SCC(O)CN1C(=O)/C(=N\Nc2ccccc2)c2ccccc21 (stereo not given)
- MIC [1]: 16 µg/mL (≈ 39.1 µM)
- MIC [2]: 64 µg/mL (≈ 156 µM)
- MIC [3]: 128 µg/mL (≈ 313 µM)
- MIC [4]: 128 µg/mL (≈ 313 µM)
- MIC [5]: 32 µg/mL (≈ 78.1 µM)
- MIC [6]: 2 µg/mL (≈ 4.88 µM)
- MIC [7]: 32 µg/mL (≈ 78.1 µM)
- MIC [8]: 16 µg/mL (≈ 39.1 µM)
- MIC [9]: 16 µg/mL (≈ 39.1 µM)
- MIC [10]: 32 µg/mL (≈ 78.1 µM)
- MIC [11]: 2 µg/mL (≈ 4.88 µM)
- HC50 [12]: 406 µg/mL
- Ratio [13]: 2

SMILES: Cc1ccc(N/N=C2\C(=O)N(CC(O)CSc3nccn3C)c3ccccc32)cc1 (stereo not given)
- MIC [1]: 256 µg/mL (≈ 607 µM)
- MIC [2]: 128 µg/mL (≈ 304 µM)
- MIC [3]: 128 µg/mL (≈ 304 µM)
- MIC [4]: 256 µg/mL (≈ 607 µM)
- MIC [5]: 128 µg/mL (≈ 304 µM)
- MIC [6]: 128 µg/mL (≈ 304 µM)
- MIC [7]: 64 µg/mL (≈ 152 µM)
- MIC [8]: 128 µg/mL (≈ 304 µM)
- MIC [9]: 128 µg/mL (≈ 304 µM)
- MIC [10]: 256 µg/mL (≈ 607 µM)
- MIC [11]: 128 µg/mL (≈ 304 µM)
- HC50 [12]: 358 µg/mL

SMILES: Cc1ccc(N/N=C2\C(=O)N(CC(O)CSc3nc[nH]n3)c3ccccc32)cc1 (stereo not given)
- MIC [1]: 16 µg/mL (≈ 39.2 µM)
- MIC [2]: 32 µg/mL (≈ 78.3 µM)
- MIC [3]: 4 µg/mL (≈ 9.79 µM)
- MIC [4]: 8 µg/mL (≈ 19.6 µM)
- MIC [5]: 2 µg/mL (≈ 4.9 µM)
- MIC [6]: 32 µg/mL (≈ 78.3 µM)
- MIC [7]: 32 µg/mL (≈ 78.3 µM)
- MIC [8]: 32 µg/mL (≈ 78.3 µM)
- MIC [9]: 64 µg/mL (≈ 157 µM)
- MIC [10]: 8 µg/mL (≈ 19.6 µM)
- MIC [11]: 16 µg/mL (≈ 39.2 µM)
- HC50 [12]: 416 µg/mL

SMILES: Cn1nnnc1SCC(O)CN1C(=O)/C(=N\Nc2ccc(Cl)cc2)c2ccccc21 (stereo not given)
- MIC [1]: 16 µg/mL (≈ 36 µM)
- MIC [2]: 32 µg/mL (≈ 72.1 µM)
- MIC [3]: 32 µg/mL (≈ 72.1 µM)
- MIC [4]: 256 µg/mL (≈ 577 µM)
- MIC [5]: 64 µg/mL (≈ 144 µM)
- MIC [6]: 2 µg/mL (≈ 4.51 µM)
- MIC [7]: 16 µg/mL (≈ 36 µM)
- MIC [8]: 4 µg/mL (≈ 9.01 µM)
- MIC [9]: 16 µg/mL (≈ 36 µM)
- MIC [10]: 32 µg/mL (≈ 72.1 µM)
- MIC [11]: 1 µg/mL (≈ 2.25 µM)
- HC50 [12]: > 512 µg/mL
- Ratio [13]: 2

SMILES: O=C1/C(=N\Nc2ccc([N+](=O)[O-])cc2)c2ccccc2N1CC(O)CSc1nc[nH]n1 (stereo not given)
- MIC [1]: 32 µg/mL (≈ 72.8 µM)
- MIC [2]: 32 µg/mL (≈ 72.8 µM)
- MIC [3]: 128 µg/mL (≈ 291 µM)
- MIC [4]: 32 µg/mL (≈ 72.8 µM)
- MIC [5]: 64 µg/mL (≈ 146 µM)
- MIC [6]: 64 µg/mL (≈ 146 µM)
- MIC [7]: 64 µg/mL (≈ 146 µM)
- MIC [8]: 128 µg/mL (≈ 291 µM)
- MIC [9]: 32 µg/mL (≈ 72.8 µM)
- MIC [10]: 64 µg/mL (≈ 146 µM)
- MIC [11]: 32 µg/mL (≈ 72.8 µM)
- HC50 [12]: > 512 µg/mL

SMILES: Cn1ccnc1SCC(O)CN1C(=O)C(=O)c2ccccc21 (stereo not given)
- MIC [1]: 128 µg/mL (≈ 403 µM)
- MIC [2]: 64 µg/mL (≈ 202 µM)
- MIC [3]: 32 µg/mL (≈ 101 µM)
- MIC [4]: 64 µg/mL (≈ 202 µM)
- MIC [5]: 128 µg/mL (≈ 403 µM)
- MIC [6]: 64 µg/mL (≈ 202 µM)
- MIC [7]: 128 µg/mL (≈ 403 µM)
- MIC [8]: 64 µg/mL (≈ 202 µM)
- MIC [9]: 64 µg/mL (≈ 202 µM)
- MIC [10]: 64 µg/mL (≈ 202 µM)
- MIC [11]: 64 µg/mL (≈ 202 µM)
- HC50 [12]: > 512 µg/mL

SMILES: O=C1/C(=N\Nc2ccc(Cl)cc2)c2ccccc2N1CC(O)CSc1nc[nH]n1 (stereo not given)
- MIC [1]: 16 µg/mL (≈ 37.3 µM)
- MIC [2]: 32 µg/mL (≈ 74.6 µM)
- MIC [3]: 16 µg/mL (≈ 37.3 µM)
- MIC [4]: 8 µg/mL (≈ 18.7 µM)
- MIC [5]: 4 µg/mL (≈ 9.33 µM)
- MIC [6]: 4 µg/mL (≈ 9.33 µM)
- MIC [7]: 16 µg/mL (≈ 37.3 µM)
- MIC [8]: 8 µg/mL (≈ 18.7 µM)
- MIC [9]: 16 µg/mL (≈ 37.3 µM)
- MIC [10]: 32 µg/mL (≈ 74.6 µM)
- MIC [11]: 128 µg/mL (≈ 298 µM)
- HC50 [12]: 350 µg/mL
